Assay results published in patent US11214803B2, “Modulators of YAP1 expression” (Ionis Pharmaceuticals, Inc., priority 2019, dated 2022).
Strand notation (5' to 3'): a small letter for the sugar, then the base; units joined by * are phosphorothioate-linked, units joined directly phosphodiester-linked; [ ] holds rarer units or linkages, { } end groups; capitals alone tell only the bases. e = 2'-O-(2-methoxyethyl) (MOE); k = constrained ethyl (cEt); [5mC] = 5-methylcytosine; d = 2'-deoxy (DNA)

Assays:
Yap1 mRNA [1] = assay: Dose-dependent inhibition of human Yap1 in A-431 cells (Example 6, 5,000 cells per well, RTS4814); type: cell-based; conditions: Table 54, A-431 cells
Summary of the method: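 A-431 cells (5,000/well) took up oligonucleotides by free uptake at various doses for about 48 h. Yap1 mRNA was measured by RT-PCR (RTS4814), normalised to RIBOGREEN total RNA and expressed as % untreated control; IC50 by linear regression on a log/linear plot.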

Yap1 mRNA [2] = assay: Dose-dependent inhibition of human Yap1 in A-431 cells (Example 7, 10,000 cells per well, RTS36584); type: cell-based; conditions: free uptake, approximately 48 hours; for Yap1 mRNA, % UTC: A-431 cells, 10,000 cells per well
Summary of the method: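 A-431 cells at 10,000 per well received modified oligonucleotides by free uptake at several doses. After about 48 hours, Yap1 mRNA was quantified with primer-probe set RTS36584, normalized to RIBOGREEN total RNA and expressed as % untreated control. IC50 came from linear regression on a log/linear plot.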

[3] = Tolerability in Balb/c mice, plasma chemistry markers (Example 11); type: in vivo; conditions: 50 mg/kg subcutaneously twice a week for four weeks
Protocol: Balb/c mice were treated with modified oligonucleotides selected from studies described above and evaluated for changes in the levels of various plasma chemistry markers.
(§1) Groups of male Balb/c mice at 4-6 weeks of age (obtained from Taconic) were injected subcutaneously twice a week for four weeks (for a total of 8 treatments) with 50 mg/kg of modified oligonucleotides. One group of male Balb/c mice was injected with PBS. Mice were euthanized on day 26 post start of treatment (24 hours following the final administration).

[4] = Tolerability in Balb/c mice, body and organ weights (Example 11); type: in vivo; conditions: 50 mg/kg subcutaneously twice a week for four weeks, end of study
Protocol: as §1
Body weights of Balb/c mice were measured at the end of the study, and the average body weight for each group is presented in the table below. Modified oligonucleotides that caused any changes in organ weights outside the expected range for modified oligonucleotides were excluded from further studies.

[5] = Tolerability in CD-1 mice, plasma chemistry markers (Example 15); type: in vivo; conditions: male CD-1 mice, 50 mg/kg s.c. twice a week for four weeks (8 treatments), day 26
Protocol: CD-1 mice were treated with modified oligonucleotides selected from studies described above and evaluated for changes in the levels of various plasma chemistry markers.
(§2) Groups of four male CD-1 mice at 4-5 weeks of age (obtained from Charles River) were injected subcutaneously twice a week for four weeks (for a total of 8 treatments) with 50 mg/kg of modified oligonucleotides. One group of male CD-1 mice was injected with PBS. Mice were euthanized on day 26 post start of treatment (24 hrs following the final administration).

[6] = Tolerability in CD-1 mice, body and organ weights (Example 15); type: in vivo; conditions: male CD-1 mice, 50 mg/kg s.c. twice a week for four weeks (8 treatments), end of study (day 26)
Protocol: as §2
Body weights of CD-1 mice were measured at the end of the study, and the average body weight for each group is presented in the table below. Modified oligonucleotides that caused any changes in organ weights outside the expected range for modified oligonucleotides were excluded from further studies.

Yap1 mRNA [7] = assay: Dose-dependent inhibition of human Yap1 in SNU-449 cells (Example 9, RTS36584); type: cell-based; conditions: free uptake; for % UTC (Yap1 mRNA): approximately 48 hours; for IC50: linear regression on a log/linear plot
Summary of the method: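 SNU-449 cells (10,000/well) took up modified oligonucleotides by free uptake at a range of doses for about 48 h. Yap1 mRNA was quantified with primer-probe set RTS36584, normalised to RIBOGREEN total RNA and expressed as % untreated control; IC50 from linear regression on log/linear plot.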

Yap1 mRNA [8] = assay: Inhibition of human Yap1 mRNA in SNU449 hepatocellular carcinoma xenograft tumors (Example 26); type: in vivo; conditions: SNU449 xenografts in NSG mice, 50 mg/kg twice weekly for five days, relative to PBS treated animals
Protocol: A SNU449 hepatocellular carcinoma xenograft tumor model was used to evaluate activity of modified oligonucleotides targeted to human Yap1. Ten million SNU449 cells in 30% matrigel were implanted subcutaneously into the flanks of female NOD Cg-Prkdcscid ll2rgtm1Wjl/SzJ (NSG) mice (from Jackson Laboratory) at 4-6 weeks of age. When tumors reached an average volume of 100 mm^3, approximately two weeks post-implantation, groups of four mice each were administered at 50 mg/kg twice weekly with modified oligonucleotides for five days. Tumors were collected and tested for Yap1 mRNA knockdown by RT-qPCR. Yap1 mRNA levels were measured as previously described using the Human Yap1 primer-probe set RTS4814. Yap1 mRNA levels were normalized to actin-beta content, as measured by primer probe set RTS5002. Results are presented in the tables below as percent control of the amount of Yap1 mRNA relative to PBS treated animals (% control).

716454 (antisense k[5mC]*kG*kA*dG*dA*dT*dT*dT*dA*dA*dA*dT*dA*kA*kG*kG) [compound 716454]
IC50 (Yap1 mRNA [1]; Yap1 mRNA, linear regression on a log/linear plot): 2600 nM
% UTC 148 nM (Yap1 mRNA [1]; free uptake, 148 nM, approximately 48 hours, RTS4814): 91 % UTC
% UTC 444 nM (Yap1 mRNA [1]; free uptake, 444 nM, approximately 48 hours, RTS4814): 71 % UTC
% UTC 1333 nM (Yap1 mRNA [1]; free uptake, 1333 nM, approximately 48 hours, RTS4814): 54 % UTC
% UTC 4000 nM (Yap1 mRNA [1]; free uptake, 4000 nM, approximately 48 hours, RTS4814): 48 % UTC
Yap1 mRNA, % UTC (Yap1 mRNA [2]; 15.6 nM): 84 % UTC
Yap1 mRNA, % UTC (Yap1 mRNA [2]; 62.5 nM): 39 % UTC
Yap1 mRNA, % UTC (Yap1 mRNA [2]; 4000.00 nM): 6 % UTC
IC50 (Yap1 mRNA [2]; A-431 cells, linear regression on log/linear plot): 100 nM
ALT [3]: 39 U/L
AST [3]: 60 U/L
BUN [3]: 14 mg/dL
TBIL [3]: 0.18 mg/dL
Kidney weight [4]: 0.42 g
Liver weight [4]: 1.48 g
Spleen weight [4]: 0.14 g
body weight [4]: 25 g
ALB [5]: 2.3 g/dL
ALT [5]: 44 U/L
AST [5]: 56 U/L
Kidney weight [6]: 0.55 g
Liver weight [6]: 2.31 g
Spleen weight [6]: 0.20 g
body weight [6]: 38 g

1198641 (kA*kT*dT*dA*dG*dA*dG*dT*dA*dT*dG*dT*kG*eG*k[5mC]*eA; antisense) [compound 1198641]
% UTC (Yap1 mRNA) (Yap1 mRNA [7]; 31.3 nM): 55 % UTC
% UTC (Yap1 mRNA) (Yap1 mRNA [7]; 125.0 nM): 29 % UTC
% UTC (Yap1 mRNA) (Yap1 mRNA [7]; 500.0 nM): 11 % UTC
% UTC (Yap1 mRNA) (Yap1 mRNA [7]; 2000.00 nM): 3 % UTC
IC50 (Yap1 mRNA [7]): 30 nM
Yap1 mRNA in tumors, % control (Yap1 mRNA [8]): 68 % control

1074461 (kG*kA*kA*dA*dT*dT*dG*dT*d[5mC]*dT*d[5mC]*dA*dT*kG*k[5mC]*k[5mC]) [compound 1074461]
% UTC (Yap1 mRNA) (Yap1 mRNA [7]; 31.3 nM): 76 % UTC
% UTC (Yap1 mRNA) (Yap1 mRNA [7]; 125.0 nM): 37 % UTC
% UTC (Yap1 mRNA) (Yap1 mRNA [7]; 500.0 nM): 15 % UTC
% UTC (Yap1 mRNA) (Yap1 mRNA [7]; 2000.00 nM): 5 % UTC
IC50 (Yap1 mRNA [7]): 100 nM
ALB [5]: 2.2 g/dL
ALT [5]: 1563 U/L
AST [5]: 865 U/L
